Results: US20080119456A1, “Substituted Thiazoleacetic Acid as Crth2 Ligands” (priority 2004, published 2008)

Assays:
human CRTH2-Rluc = biological target: T1, human CRTH2-Rluc (Homo sapiens, UniProt Q9Y5Y4, V204A); test: Functional antagonist BRET assay on HEK293 cells stably expressing CRTH2-Rluc and GFP2-β-arr2; type: cell-based; conditions: antagonist incubated 15 minutes before agonist, read-out: Antag. IC50
T1 construct: expressed in transfected cells
T1 sequence (Q9Y5Y4 1-395 V204A): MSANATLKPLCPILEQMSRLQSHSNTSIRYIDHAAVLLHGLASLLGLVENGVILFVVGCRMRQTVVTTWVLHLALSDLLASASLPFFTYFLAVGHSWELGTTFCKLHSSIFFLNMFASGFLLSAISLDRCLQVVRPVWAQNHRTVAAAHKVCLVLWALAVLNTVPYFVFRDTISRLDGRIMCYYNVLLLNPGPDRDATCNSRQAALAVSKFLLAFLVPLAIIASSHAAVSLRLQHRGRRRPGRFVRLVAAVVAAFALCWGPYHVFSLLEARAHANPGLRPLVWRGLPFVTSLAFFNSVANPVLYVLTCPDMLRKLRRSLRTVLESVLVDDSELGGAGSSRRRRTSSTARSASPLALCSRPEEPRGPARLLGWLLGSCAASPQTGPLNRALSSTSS
From the text: (§1) Generation/origin of the cDNA Constructs. The coding sequence of the human CRTH2 receptor (genbank accession no NM_004778) was amplified by PCR from a human hippocampus cDNA library and inserted into the pcDNA3.1(+) expression vector (invitrogen) via 5′ HindIII and 3′ EcoRI. To generate a CRTH2-Renilla luciferase (CRTH2-Rluc) fusion protein, the CRTH2 coding sequence without a STOP codon and Rluc were amplified, fused in frame by PCR and subcloned into the pcDNA3.1(+)Zeo expression vector (invitrogen). Human β-arrestin2 (β-arr2) N-terminally tagged with GFP^2 (βarr2-GFP^2) and Renilla luciferase were purchased from BioSignal Packard Inc, (Montreal, Canada). The sequence identity of the construct was verified by restriction endonuclease digests and sequencing in both directions on an ABI Prism (Applied Biosystems, Foster City, Calif.).
(§2) Cell Culture and Transfection. COS-7 cells were grown in Dulbecco's modified Eagle's medium (DMEM) 1885 supplemented with 10% fetal bovine serum, 100 units/ml penicillin, […] streptomycin, and kept at 37° C. in a 10% CO2 atmosphere. HEK293 cells were maintained in Minimum Essential medium (MEM) supplemented with 10% (v/v) heat inactivated fetal calf serum (HIFCS), 2 mM Glutamax™-I, 1% non essential amino acids (NEAA), 1% sodium pyruvate and 10 μg/ml gentamicin. For binding experiments, COS7 cells were transiently transfected with the CRTH2 receptor using a calcium phosphate-DNA coprecipitation method with the addition of chloroquine (as described by Hoist et al., 2001*). To perform the functional Bioluminescence Resonance Energy Transfer (BRET) assays, a HEK293 cell clone stably expressing βarr2-GFP^2 and CRTH2-Rluc was generated (CRTH2-HEK293 cells).
BRET assay. Functional BRET assays were performed on HEK293 cells stably expressing human CRTH2-Rluc and GFP^2-β-arr2. Prior to their use in the BRET assay cells were detached and re-suspended in D-PBS with 1000 mg/L L-Glucose at a density of 2×10^6 cells/mL. DeepBlueC™ was diluted to 50 μM in D-PBS with 1000 mg/L L-Glucose (light sensitive). 100 μL of cell suspension was transferred to wells in a 96-well microplate (white OptiPlate) and placed in the Mithras LB 940 instrument (BERTHOLD TECHNOLOGIES, Bad Wildbad, Germany). 12 μL/well agonist was then injected by injector 1 and 10 μL/well DeepBlueC™ was injected simultaneously by injector 2. Five seconds after the injections the light output from the well was measured sequentially at 400 nm and 515 nm, and the BRET signal (mBRET ratio) was calculated by the ratio of the fluorescence emitted by GFP^2-β-arr2 (515 nm) over the light emitted by the receptor-Rluc (400 nm). Antagonists were added before placing the microplates into the Mithras LB 940 and allowed to incubate for 15 minutes prior to the addition of agonist and DeepBlueC™. Compounds were dissolved in DMSO and the final DMSO concentration was kept constant at 1% in the assay.
(§3) Curve analysis was performed with the GraphPadPrism software 3.0 (Graphpad Prism Inc., San Diego, USA) and IC50 values were calculated as a measure of the antagonistic potencies.

human CRTH2 receptor = biological target: T2, human CRTH2 receptor (Homo sapiens, UniProt Q9Y5Y4, V204A); test: Receptor binding assay: [3H]PGD2 competition on whole COS-7 cells transfected with CRTH2; conditions: 0.1 nM [3H]PGD2, whole cells, 3 h at 4° C.
T2 construct: expressed in transfected cells; host or cells: COS-7 cells, transient, pcDNA3.1(+)
T2 sequence (Q9Y5Y4 1-395 V204A): T1 sequence (Q9Y5Y4 1-395 V204A)
From the text: as §1, §2
Binding assay. 24 h after transfection COS-7 cells were seeded into 96 well plates at a density of 30.000 cells/well. Competition binding experiments on whole cells were then performed about 18-24 h later using 0.1 nM [^3H]PGD2 (NEN, 172 Ci/mmol) in a binding buffer consisting of HBSS (GIBCO) and 10 mM HEPES. Competing ligands were diluted in DMSO which was kept constant at 1% (v/v) of the final incubation volume. Total and nonspecific binding were determined in the absence and presence of 10 μM PGD2. Binding reactions were routinely conducted for 3 h at 4° C. and terminated by 2 washes (100 μl each) with ice cold binding buffer. Radioactivity was determined by liquid scintillation counting in a TOPCOUNTER (Packard) following over night incubation in Microscint 20. Stable HEK293 cells were seeded at a density of 30.000 cells/well 18-24 h prior to the binding assay which was performed essentially as described for COS7 cells above. Determinations were made in duplicates.
as §3

Question: For `O=C(O)Cc1sc(C(c2ccccc2)c2ccccc2)nc1-c1ccc(Cl)cc1` [Compound A1, [2-Benzhydryl-4-(4-chloro-phenyl)-thiazol-5-yl]-acetic acid], which IC50 (human CRTH2-Rluc) is on record?
Answer: < 500 nM

Question: What about the IC50 (human CRTH2 receptor) of the same compound?
Answer: < 500 nM

Question: Which results are given for `O=C(O)Cc1sc(C(c2ccccc2)c2ccccc2)nc1-c1ccc(F)cc1` [Compound A4, [2-Benzhydryl-4-(4-fluoro-phenyl)-thiazol-5-yl]-acetic acid]?
Answer: IC50 (human CRTH2-Rluc): < 500 nM; IC50 (human CRTH2 receptor): < 500 nM

Question: Which IC50 (human CRTH2-Rluc) does the source give for `O=C(O)Cc1sc(C(Cc2ccccc2)c2ccccc2)nc1-c1ccc(Cl)cc1` (centres unmarked) [Compound A5, [4-(4-Chloro-phenyl)-2-(1,2-diphenyl-ethyl)-thiazol-5-yl]-acetic acid] here?
Answer: 500 to 5000 nM

Question: And the IC50 (human CRTH2 receptor)?
Answer: < 500 nM

Question: How did the IC50 (human CRTH2 receptor) turn out when `CCC(c1ccccc1)c1nc(-c2ccc(Cl)cc2)c(CC(=O)O)s1` (centres unmarked) [Compound A6, [4-(4-Chloro-phenyl)-2-(1-phenyl-propyl)-thiazol-5-yl]-acetic acid] was run?
Answer: < 500 nM

Question: For `O=C(O)Cc1sc(C(Cc2ccccc2)c2ccc(Cl)cc2)nc1-c1ccc(F)cc1` (centres unmarked) [Compound A7, [2-[1-(4-Chloro-phenyl)-2-phenyl-ethyl]-4-(4-fluoro-phenyl)-thiazol-5-yl]-acetic acid], which IC50 (human CRTH2-Rluc) is on record?
Answer: < 500 nM

Question: What about the IC50 (human CRTH2 receptor) of the same compound?
Answer: < 500 nM

Question: How did the IC50 (human CRTH2-Rluc) turn out when `O=C(O)Cc1sc(C(c2ccccc2)c2ccc(Cl)cc2)nc1-c1ccc(Cl)cc1` (centres unmarked) [Compound A8, {4-(4-Chloro-phenyl)-2-[(4-chloro-phenyl)-phenyl-methyl]-thiazol-5-yl}-acetic acid] was run?
Answer: < 500 nM

Question: What about the IC50 (human CRTH2 receptor) of the same compound?
Answer: < 500 nM

Question: With `O=C(O)Cc1sc(C(Cc2ccccc2)c2ccc(Cl)cc2)nc1-c1ccc(Cl)cc1` (centres unmarked) [Compound A9, {4-(4-Chloro-phenyl)-2-[1-(4-chloro-phenyl)-2-phenyl-ethyl]-thiazol-5-yl}-acetic acid] as the compound, how does the IC50 (human CRTH2-Rluc) read?
Answer: 500 to 5000 nM

Question: And the IC50 (human CRTH2 receptor)?
Answer: < 500 nM

Question: How did the IC50 (human CRTH2-Rluc) turn out when `O=C(O)Cc1sc(C(c2ccccc2)c2ccc(Cl)cc2)nc1-c1ccc(F)cc1` (centres unmarked) [Compound A10, [2-[(4-Chloro-phenyl)-phenyl-methyl]-4-(4-fluoro-phenyl)-thiazol-5-yl]-acetic acid] was run?
Answer: < 500 nM

Question: And the IC50 (human CRTH2 receptor)?
Answer: < 500 nM

Question: With `O=C(O)Cc1sc(C(c2ccccc2)c2ccccc2)nc1-c1ccccc1` [Compound A11, (2-Benzhydryl-4-phenyl-thiazol-5-yl)-acetic acid] as the compound, how does the IC50 (human CRTH2-Rluc) read?
Answer: < 500 nM

Question: What about the IC50 (human CRTH2 receptor) of the same compound?
Answer: 500 to 5000 nM

Question: Which results are given for `COc1ccc(-c2nc(C(c3ccccc3)c3ccccc3)sc2CC(=O)O)cc1` [Compound A12, [2-Benzhydryl-4-(4-methoxy-phenyl)-thiazol-5-yl]-acetic acid]?
Answer: IC50 (human CRTH2-Rluc): 500 to 5000 nM; IC50 (human CRTH2 receptor): < 500 nM

Question: What does the source list for `O=C(O)Cc1sc(C(c2ccccc2)c2ccc(F)cc2)nc1-c1ccc(Cl)cc1` (centres unmarked) [Compound A13, {4-(4-Chloro-phenyl)-2-[(4-fluoro-phenyl)-phenyl-methyl]-thiazol-5-yl}-acetic acid]?
Answer: IC50 (human CRTH2-Rluc): < 500 nM; IC50 (human CRTH2 receptor): < 500 nM

Question: Which results are given for `O=C(O)Cc1sc(C(c2ccc(F)cc2)c2ccc(F)cc2)nc1-c1ccc(F)cc1` [Compound A14, [2-[Bis-(4-fluoro-phenyl)-methyl]-4-(4-fluoro-phenyl)-thiazol-5-yl]-acetic acid]?
Answer: IC50 (human CRTH2-Rluc): < 500 nM; IC50 (human CRTH2 receptor): < 500 nM

Question: With `COc1ccc(C(c2ccccc2)c2nc(-c3ccc(F)cc3)c(CC(=O)O)s2)cc1` (centres unmarked) [Compound A15, {4-(4-Fluoro-phenyl)-2-[(4-methoxy-phenyl)-phenyl-methyl]-thiazol-5-yl}-acetic acid] as the compound, how does the IC50 (human CRTH2-Rluc) read?
Answer: < 500 nM

Question: And the IC50 (human CRTH2 receptor)?
Answer: < 500 nM

Question: How did the IC50 (human CRTH2-Rluc) turn out when `COc1ccc(C(c2ccccc2)c2nc(-c3ccc(Cl)cc3)c(CC(=O)O)s2)cc1` (centres unmarked) [Compound A16, {4-(4-Chloro-phenyl)-2-[(4-methoxy-phenyl)-phenyl-methyl]-thiazol-5-yl}-acetic acid] was run?
Answer: < 500 nM

Question: What about the IC50 (human CRTH2 receptor) of the same compound?
Answer: < 500 nM

Question: For `O=C(O)Cc1sc(C(c2ccccc2)c2ccc(F)c(F)c2)nc1-c1ccc(Cl)cc1` (centres unmarked) [Compound A17, {4-(4-Chloro-phenyl)-2-[(3,4-difluoro-phenyl)-phenyl-methyl]-thiazol-5-yl}-acetic acid], which IC50 (human CRTH2-Rluc) is on record?
Answer: > 5000 nM

Question: What about the IC50 (human CRTH2 receptor) of the same compound?
Answer: < 500 nM

Question: Which results are given for `O=C(O)Cc1sc(C(c2ccccc2)c2ccc(F)c(F)c2)nc1-c1ccc(F)cc1` (centres unmarked) [Compound A18, [2-[(3,4-Difluoro-phenyl)-phenyl-methyl]-4-(4-fluoro-phenyl)-thiazol-5-yl]-acetic acid]?
Answer: IC50 (human CRTH2-Rluc): < 500 nM; IC50 (human CRTH2 receptor): < 500 nM

Question: What does the source list for `O=C(O)Cc1sc(C(NC(=O)c2ccc(C(F)(F)F)cc2)c2ccccc2)nc1-c1ccc(F)cc1` (centres unmarked) [Compound A19, {4-(4-Fluoro-phenyl)-2-[phenyl-(4-trifluoromethyl-benzoylamino)-methyl]-thiazol-5-yl}-acetic acid]?
Answer: IC50 (human CRTH2-Rluc): > 5000 nM; IC50 (human CRTH2 receptor): < 500 nM

Question: Which IC50 (human CRTH2 receptor) does the source give for `O=C(O)Cc1sc(C(c2ccccc2)c2ncccc2Cl)nc1-c1ccc(Cl)cc1` (centres unmarked) [Compound A29, {4-(4-Chloro-phenyl)-2-[(3-chloro-pyridin-2-yl)-phenyl-methyl]-thiazol-5-yl}-acetic acid] here?
Answer: < 500 nM

Question: Which IC50 (human CRTH2 receptor) does the source give for `COc1ccc(C(c2ccccn2)c2nc(-c3ccc(F)cc3)c(CC(=O)O)s2)cc1` (centres unmarked) [Compound A30, {4-(4-Fluoro-phenyl)-2-[(4-methoxy-phenyl)-pyridin-2-yl-methyl]-thiazol-5-yl}-acetic acid] here?
Answer: < 500 nM

Question: For `O=C(O)Cc1sc(C(c2ccccc2)C2CCCCC2)nc1-c1ccc(Cl)cc1` (centres unmarked) [Compound A32, [4-(4-Chloro-phenyl)-2-(cyclohexyl-phenyl-methyl)-thiazol-5-yl]-acetic acid], which IC50 (human CRTH2 receptor) is on record?
Answer: 500 to 5000 nM

Question: With `O=C(O)Cc1sc(Cc2ccccc2Oc2ccccc2)nc1-c1ccc(Cl)cc1` [Compound A35, [4-(4-Chloro-phenyl)-2-(2-phenoxy-benzyl)-thiazol-5-yl]-acetic acid] as the compound, how does the IC50 (human CRTH2 receptor) read?
Answer: 500 to 5000 nM

Question: How did the IC50 (human CRTH2 receptor) turn out when `CC(=O)Nc1cccc(-c2ccccc2Cc2nc(-c3ccc(F)cc3)c(CC(=O)O)s2)c1` [Compound A39, [2-(3′-Acetylamino-biphenyl-2-ylmethyl)-4-(4-fluoro-phenyl)-thiazol-5-yl]-acetic acid] was run?
Answer: 500 to 5000 nM

Question: For `COc1ccccc1-c1ccccc1Cc1nc(-c2ccc(F)cc2)c(CC(=O)O)s1` [Compound A41, [4-(4-Fluoro-phenyl)-2-(2′-methoxy-biphenyl-2-ylmethyl)-thiazol-5-yl]-acetic acid], which IC50 (human CRTH2 receptor) is on record?
Answer: < 500 nM

Question: With `N#Cc1cccc(-c2ccccc2Cc2nc(-c3ccc(F)cc3)c(CC(=O)O)s2)c1` [Compound A43, [2-(3′-Cyano-biphenyl-2-ylmethyl)-4-(4-fluoro-phenyl)-thiazol-5-yl]-acetic acid] as the compound, how does the IC50 (human CRTH2 receptor) read?
Answer: < 500 nM

Question: How did the IC50 (human CRTH2 receptor) turn out when `O=C(O)Cc1sc(Cc2ccccc2-c2cccc(OC(F)(F)F)c2)nc1-c1ccc(F)cc1` [Compound A44, [4-(4-Fluoro-phenyl)-2-(3′-trifluoromethoxy-biphenyl-2-ylmethyl)-thiazol-5-yl]-acetic acid] was run?
Answer: < 500 nM
